Assays:
[1] = system: AML1-ETO; experiment: Methylcellulose colony-forming assay, AML1-ETO transduced murine cells; type: cell-based, mouse; settings: 100 nM or 200 nM; FIG. 2A right panel
Protocol: (§1) Primary mouse bone marrow (BM) cells (transduced with MLL-AF9/KRAS, MLL-AF6, or AML1-ETO/KRAS) were seeded in MethoCult GF M3434 (StemCell Technologies) at a concentration of 1×10^3 cells/replicate. Colonies propagated in culture were scored at day 8. For re-plating of primary mouse BM cells, colonies were harvested from the methylcellulose medium, washed with PBS/1% FBS and seeded again at a concentration of 1×10^3 cells/replicate. MOLM-13 or ML-2 cells infected with either control or PSMB8/LMP7-specific shRNAs were plated at a concentration of 1×10^3 cells in MethoCult H4230 (StemCell Technologies) supplemented with 20% FBS and colony numbers were counted on day 10-14.

[2] = system: Menin-inhibitor resistant cell lines (MV-4;11 M327I, T349M); experiment: Relative growth of Menin-inhibitor resistant MV-4;11 cell lines; type: cell-based, human; settings: resistance mutations M327I and T349M; 50 nM or 100 nM PR-957; FIG. 4L
Protocol: (§2) MOLM-13, MONO-MAC-6, THP-1, KOPN-8, ML-2, MV-4;11, OCI-AML3, U-937, KASUMI-1, K-562, HL-60 and LAMA-84 cells were purchased from DSMZ (Braunschweig, Germany). Cas9-Blast cell lines are subclones of the respective cell lines and stably transduced with lentiCas9-Blast (Addgene plasmid #52962). Cells were cultured in RPMI 1640 medium (Thermo Fisher Scientific, Waltham, MA, USA) supplemented with 10-20% FBS (Thermo Fisher Scientific) in a humid atmosphere of 5% CO2 at 37° C. MV4;11 cells harboring Menin-inhibitor resistance mediating mutations of Menin were generated by CRISPR-Cas9 technology.

[3] = system: MLLr cell lines; experiment: Cell growth (cell counting after trypan blue exclusion) of MLLr cell lines; type: cell-based, human; settings: 50 nM or 100 nM PR-957, 96 hours, vs DMSO; FIG. 1G left
Protocol: as §2
(§3) Cellular proliferation was assessed by cell counting after trypan blue exclusion. Apoptosis of cells was measured by flow cytometry using Annexin V/SYTOX® Blue staining following the manufacturer's instruction.

[4] = system: MOLM-13 and ML-2 cells; experiment: Global transcriptome analysis by RNA-sequencing; type: cell-based, human; settings: 100 nM PR-957, 72 hours, FIG. 3A
Description: Cells were harvested and resuspended in TRIzol™, and RNA was extracted using the TRIzol-Chloroform method (Heidel et al., 2013). RNA-seq libraries were generated using SMART-Seq v4 Ultra Low Input RNA Kit (Takara Bio USA Inc., Mountain View, CA, USA) followed by Nextera XT (Illumina, San Diego, CA, USA).
For analysis, 50 bp single-end reads (Illumina) were aligned to reference genome mm10 and gtf.-transcriptome annotation release M7 (GENCODE) using STAR two-pass mode (Dobin et al., 2013).
GENCODE M7 gtf.-file was used for quantification, performed by STAR, followed by normalization, transformation and differential gene expression analysis in DEseq2 (Love et al., 2014). GSEA was carried out on a public server “Gene Pattern” of Broad Institute (Reich et al., 2006). For analysis of the genetic CRISPRCas9 screen, next generation sequencing was performed on an Illumina NextSeq platform (75 bp, single reads) aiming for a minimum of 30Mio reads per sample.
Therefore, it was sought to determine to which extent the inhibition of PSMB8/LMP7 also contributes to the transcriptional regulation of human MLL-target genes. […] This cell line was selected for its sensitivity to PR-957 (FIG. 3D) and ability to be transduced among the MLLr cell lines evaluated above. […]

[5] = system: non-MLLr cell lines; experiment: Cell growth (cell counting after trypan blue exclusion) of non-MLLr cell lines; type: cell-based, human; settings: 50 nM or 100 nM PR-957, 96 hours, vs DMSO; FIG. 1G right
Protocol: as §2, §3

[6] = system: MLL-rearranged murine leukemic cells; experiment: Methylcellulose colony-forming assay, MLL-rearranged murine leukemic cells; type: cell-based, mouse
Protocol: as §1

COc1ccc(C[C@H](NC(=O)[C@H](C)NC(=O)CN2CCOCC2)C(=O)N[C@@H](Cc2ccccc2)C(=O)[C@]2(C)CO2)cc1 [PR-957, (2S)-3-(4-methoxyphenyl)-N-[(2S)-1-[(2S)-2-methyloxiran-2-yl]-1-oxo-3-phenylpropan-2-yl]-2-[[(2S)-2-[(2-morpholin-4-ylacetyl)amino]propanoyl]amino]propanamide]
reduction of clonogenic potential, non-MLL fusion oncogene AML1-ETO [1]: not detectable
sensitivity of Menin-inhibitor resistant cell lines to immunoproteasome inhibition [2]: preserved sensitivity
cell growth in MLLr cell lines [3]: dose-dependent and specific reduction of cell growth
genes regulated in both cell lines upon treatment (overlap) [4]: 457 genes
cell growth in non-MLLr cell lines [5]: largely unaffected
colony size and shape ([6]; MLL-AF9 transformed leukemia): reduction of colony size and changes in colony shape
clonogenic potential (colony counts) ([6]; nanomolar concentrations (100 nM or 200 nM), serial replating, FIG. 2A): profound dose dependent reduction of clonogenic potential

From US20260174766A1, “COMBINATION OF MENIN INHIBITOR(S) AND IMMUNOPROTEASOME INHIBITOR(S) FOR TREATMENT OF LEUKEMIA” (Medizinische Hochschule Hannover, priority 2022, published 2026)
